Here are results for 5 cell lines from the supplement of paper PMC10307832.

Experiment in all cases: relative viability (nuclei count vs DMSO), 5 days (fraction); higher = more cells survive
Compound in assay [1]: COc1cc2ncn(-c3cc(OCc4ccccc4C(F)(F)F)c(C(N)=O)s3)c2cc1OC + CC1(C)CCC(c2ccc(Cl)cc2)=C(CN2CCN(c3ccc(C(=O)NS(=O)(=O)c4ccc(N[C@H](CCN5CCOCC5)CSc5ccccc5)c(S(=O)(=O)C(F)(F)F)c4)cc3)CC2)C1 [Navitoclax] (partner 0.5 µM)
A digest of the protocol:
(§1)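 Cells from lung cancer lines were seeded into 1536-well plates and, one day later, dosed by pin tool. Treatments were either a single drug or a fixed dose of an anchor drug with five library-drug doses (not always all listed) in √10 steps. After 5 days, nuclei were stained in a one-step fixation (final 0.05% Triton X-100, 1% formaldehyde, 1 ug/ml Hoechst) and counted on 4× images, and relative viability is the treated-to-vehicle nuclei ratio, as the median of duplicate plates.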

Compound in assay [2]: COc1cc2ncn(-c3cc(OCc4ccccc4C(F)(F)F)c(C(N)=O)s3)c2cc1OC + Cc1cc(Nc2cc(N3CCN(C)CC3)nc(Sc3ccc(NC(=O)C4CC4)cc3)n2)n[nH]1 [Tozasertib] (partner 0.1 µM)
In outline: as §1

Compound in assay [3]: COc1cc2ncn(-c3cc(OCc4ccccc4C(F)(F)F)c(C(N)=O)s3)c2cc1OC + N=C(N)NC(=N)NCCc1ccccc1 [Phenformin] (partner 250 µM)
In outline: as §1

Compound in assay [4]: COc1cc2ncn(-c3cc(OCc4ccccc4C(F)(F)F)c(C(N)=O)s3)c2cc1OC
A digest of the protocol:
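MetaXpress counted nuclei in 4× images of lung cancer cell lines that had been fixed, permeabilised and Hoechst-stained in one step. Before that, cells in 1536-well plates were kept overnight at 37 °C, pinned with five √10-spaced library-drug doses on vehicle-anchored plates, and cultured 5 days without medium change. Viability takes treated-well nuclei over vehicle-well nuclei and uses the median across plates. Plates were accepted only at control CV below 25% and at least one doubling.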

Regarding NCI-H2228, the relative viability amounted to 1.05 in assay [1] (first compound 0.05 µM); 1.3 in assay [1] (first compound 0.1581 µM); 0.167 in assay [1] (first compound 0.5 µM); 0.0999 in assay [1] (first compound 1.581 µM); 0.105 in assay [1] (first compound 5 µM); 0.291 in assay [2] (first compound 0.05 µM). For the same cell line, the relative viability in assay [2] (first compound 0.1581 µM) was determined as 0.258; in assay [2] (first compound 0.5 µM), 0.133; in assay [2] (first compound 1.581 µM) it was 0.178; in assay [2] (first compound 5 µM), 0.201; in assay [3] (first compound 0.05 µM), 0.305; in assay [3] (first compound 0.1581 µM) it was 0.337. Moreover, the relative viability came out at 0.155 in assay [3] (first compound 0.5 µM); 0.121 in assay [3] (first compound 1.581 µM); 0.144 in assay [3] (first compound 5 µM); 1.01 in assay [4] (0.05 µM); 0.853 in assay [4] (0.1581 µM); 0.417 in assay [4] (0.5 µM). For the same cell line, the relative viability came out at 0.166 in assay [4] (1.581 µM) and 0.188 in assay [4] (5 µM).

Take NCI-H2347: the relative viability in assay [1] (first compound 0.05 µM) stood at 0.78; in assay [1] (first compound 0.1581 µM), 1.01; in assay [1] (first compound 0.5 µM) it was 0.566; in assay [1] (first compound 1.581 µM) it was 0.38; in assay [1] (first compound 5 µM), 0.579; in assay [2] (first compound 0.05 µM), 0.464. The relative viability in assay [2] (first compound 0.1581 µM) is 0.622; in assay [2] (first compound 0.5 µM), 0.264; in assay [2] (first compound 1.581 µM) it was 0.372; in assay [2] (first compound 5 µM), 0.363; in assay [3] (first compound 0.05 µM) it was 0.361; in assay [3] (first compound 0.1581 µM), 0.374. Also, the relative viability in assay [3] (first compound 0.5 µM) stood at 0.493; in assay [3] (first compound 1.581 µM), 0.353; in assay [3] (first compound 5 µM), 0.277; in assay [4] (0.05 µM), 1.05; in assay [4] (0.1581 µM) it was 0.932; in assay [4] (0.5 µM) it was 0.848. In addition, the relative viability in assay [4] (1.581 µM) was found to be 0.564; in assay [4] (5 µM) it was 0.501.

In the case of NCI-H2405, the relative viability in assay [1] (first compound 0.05 µM) is 0.931; in assay [1] (first compound 0.1581 µM), 0.69; in assay [1] (first compound 0.5 µM), 0.16; in assay [1] (first compound 1.581 µM), 0.0992; in assay [1] (first compound 5 µM), 0.0957; in assay [2] (first compound 0.05 µM) it was 0.88. Also, the relative viability in assay [2] (first compound 0.1581 µM) is 0.803; in assay [2] (first compound 0.5 µM) it was 0.368; in assay [2] (first compound 1.581 µM), 0.325; in assay [2] (first compound 5 µM) it was 0.327; in assay [3] (first compound 0.05 µM), 0.437; in assay [3] (first compound 0.1581 µM) it was 0.274. The relative viability in assay [3] (first compound 0.5 µM) was determined as 0.29; in assay [3] (first compound 1.581 µM) it was 0.322; in assay [3] (first compound 5 µM), 0.246; in assay [4] (0.05 µM), 1.13; in assay [4] (0.1581 µM), 0.769; in assay [4] (0.5 µM) it was 0.665. The relative viability in assay [4] (1.581 µM) was found to be 0.428; in assay [4] (5 µM) it was 0.351.

Turning to NCI-H3122, the relative viability in assay [1] (first compound 0.05 µM) came out at 1.05; in assay [1] (first compound 0.1581 µM), 1.01; in assay [1] (first compound 0.5 µM), 0.212; in assay [1] (first compound 1.581 µM), 0.189; in assay [1] (first compound 5 µM), 0.202; in assay [2] (first compound 0.05 µM), 0.359. In addition, the relative viability in assay [2] (first compound 0.1581 µM) is 0.392; in assay [2] (first compound 0.5 µM), 0.211; in assay [2] (first compound 1.581 µM) it was 0.286; in assay [2] (first compound 5 µM), 0.284; in assay [3] (first compound 0.05 µM) it was 0.362; in assay [3] (first compound 0.1581 µM), 0.37. Also, the relative viability is 0.16 in assay [3] (first compound 0.5 µM); 0.143 in assay [3] (first compound 1.581 µM); 0.128 in assay [3] (first compound 5 µM); 1 in assay [4] (0.05 µM); 0.872 in assay [4] (0.1581 µM); 0.317 in assay [4] (0.5 µM). Besides, the relative viability in assay [4] (1.581 µM) turned out to be 0.145; in assay [4] (5 µM), 0.173.

As to PC-3 [JPC-3], the relative viability in assay [1] (first compound 0.05 µM) worked out at 0.757; in assay [1] (first compound 0.1581 µM), 0.715; in assay [1] (first compound 0.5 µM), 0.471; in assay [1] (first compound 1.581 µM) it was 0.27; in assay [1] (first compound 5 µM), 0.238; in assay [2] (first compound 0.05 µM) it was 0.892. Moreover, the relative viability in assay [2] (first compound 0.1581 µM) stood at 0.856; in assay [2] (first compound 0.5 µM), 0.4; in assay [2] (first compound 1.581 µM) it was 0.33; in assay [2] (first compound 5 µM), 0.369; in assay [3] (first compound 0.05 µM), 0.494; in assay [3] (first compound 0.1581 µM) it was 0.501. The relative viability in assay [3] (first compound 0.5 µM) was 0.381; in assay [3] (first compound 1.581 µM) it was 0.184; in assay [3] (first compound 5 µM) it was 0.187; in assay [4] (0.05 µM), 1.06; in assay [4] (0.1581 µM), 0.985; in assay [4] (0.5 µM), 0.636. In addition, the relative viability in assay [4] (1.581 µM) came to 0.303; in assay [4] (5 µM), 0.296.
